Reference: paper PMC10304470, “Characterization of the Antimicrobial Activities of Trichoplusia ni Cecropin A as a High-Potency Therapeutic against Colistin-Resistant Escherichia coli” (Pharmaceutics, 2023)
Peptide text beside a SMILES is read from it.

Columns and labels:
[1] = test system: Acinetobacter baumannii (KCCM 40203); format: cell-based; details: KCCM 40203, 16 h
Excerpt: (§1) E. coli (KCTC 1682) was obtained from the Korean Collection for Type Cultures (KCTC, Jeongeup, Republic of Korea), and Acinetobacter baumannii (KCCM 40203) and Pseudomonas aeruginosa (KCCM 11328) from the Korea Culture Center of Microorganisms (KCCM, Seoul, Republic of Korea). Klebsiella pneumoniae (NCCP 16054), colistin-resistant E. coli NMA 1557 (ColREC 1557), NMS 12 (ColREC 12), and colistin-resistant A. baumannii NMS 1915 (ColRAB 1915), as well as colistin-resistant K. pneumoniae NMS 139 (ColRKP 139), were obtained from the National Institute of Health Multidrug Resistant Bacteria Specialized Pathogen Resources Bank (Osong, Republic of Korea).
(§2) The antibacterial abilities of the peptides (T. ni cecropin, cecropin A, polymyxin B, colistin, and melittin) were determined using the broth dilution method as previously reported. The peptides dissolved at 10 mg/mL in deionized water were serially diluted from 64 μM to 0.5 μM in 96-well plates using Mueller–Hinton (MH) broth, and bacteria cultured to exponential growth were added at 2 × 10^5 cells/mL. The group of bacteria that grew untreated in the broth was set as the positive control, and the uninoculated broth as the negative control. Dissolved peptides are colorless and equal to the OD value of the medium only. After 16 h incubation at 37 °C, the absorbance at 600 nm was measured using a SpectraMAX microplate reader (Molecular Devices, San Jose, CA, USA).

[2] = test system: Klebsiella pneumoniae (NCCP 16054); format: cell-based; details: NCCP 16054, 16 h
Excerpt: as §1, §2

[3] = test system: Pseudomonas aeruginosa (KCCM 11328); format: cell-based; details: KCCM 11328, 16 h
Excerpt: as §1, §2

[4] = test system: colistin-resistant A. baumannii NMS 1915 (ColRAB 1915); details: MH broth, 2 × 10^5 cells/mL, 16 h, 37 °C, OD600, >95% killing
Excerpt: as §1
as §2, with “The” for “The antibacterial abilities of the peptides (T. ni cecropin, cecropin A, polymyxin B, colistin, and melittin) were determined using the broth dilution method as previously reported. The”

[5] = test system: sheep red blood cells (sRBCs); assay: Hemolysis; format: cell-based; details: 100 μM peptide, 1 h, 37 °C
Procedure: Sheep red blood cells (sRBCs; KisanBio, Seoul, Republic of Korea) were added to three volumes of phosphate-buffered saline (PBS; 35 mM phosphate buffer containing 150 mM NaCl, pH 7.4) and centrifuged five times at 4 °C, 1000× g for 5 min, followed by a final suspension in PBS at 4% (w/v). Peptides serially diluted from 100 μM to 3.1 μM in PBS at 100 μL in a 96-well plate were prepared, and an equal volume of blood solution was added. After incubation at 37 °C for 1 h, the plates were centrifuged for 5 min at 4 °C, 1000× g. The absorbance of the supernatant was measured at 405 nm. The 100% hemolysis control was 0.1% Triton-X 100 added to the blood solution; the negative control was blood solution added to PBS.

[6] = test system: LPS-stimulated RAW 264.7 cells; assay: Nitrite (NO) production in LPS-stimulated macrophages, Griess; format: cell-based, mouse; details: 5 μM peptide, 1 h pretreatment, 20 ng/mL LPS, 16 h
Procedure: Murine macrophage RAW 264.7 cells were used to measure the anti-inflammatory activities of peptides. Culture plates (96-well) were seeded at a density of 1 × 10^5 cells/well and stimulated with 20 ng/mL LPS (O111:B4; Sigma-Aldrich) for 16 h after 1 h pretreatment with each concentration of peptide (0.6 to 10 μM). The control is an untreated cell. The culture supernatant was added to an equal volume of Griess reagent (Sigma-Aldrich), and the absorbance was measured at 540 nm. Nitrite production was quantified using a standard curve constructed using NaNO2.

[7] = test system: ColREC 1557-stimulated RAW 264.7 cells; assay: Nitrite (NO) production in ColREC 1557-infected macrophages; format: cell-based, mouse; details: 1.3 μM peptide, 1 h before ColREC 1557 infection
Procedure: To investigate the inflammatory response induced by ColREC 1557, RAW 264.7 cells (1 × 10^5 cells/well) were treated with various concentrations of peptide (0.6 to 10 μM) 1 h before bacterial infection. The control was an untreated cell. ColREC 1557 that had been cultured in LB broth overnight and sub-cultured to the exponential phase were harvested, suspended in DMEM, and used to infect RAW 264.7 cells to a final concentration of 1 × 10^5 cells/well. Subsequent nitrite and IL-6 detection was performed as described in Section 2.15.

Structure (SMILES): CC[C@H](C)CCCCC(=O)N[C@@H](CCN)C(=O)N[C@H](C(=O)N[C@@H](CCN)C(=O)N[C@H]1CCNC(=O)[C@H]([C@@H](C)O)NC(=O)[C@H](CCN)NC(=O)[C@H](CCN)NC(=O)[C@H](CC(C)C)NC(=O)[C@@H](CC(C)C)NC(=O)[C@H](CCN)NC1=O)[C@@H](C)O [colistin] (HELM PEPTIDE1{[CC[C@H](C)CCCCC(=O)[*:2]].[Dab].T.[Dab].[Dab].[Dab].[dL].L.[Dab].[Dab].T}$PEPTIDE1,PEPTIDE1,5:R3-11:R2$$$V2.0; N-terminus assumed; bridges inferred)
- Minimal Inhibitory Concentration [1]: 0.25 µM
- Minimal Inhibitory Concentration [2]: 0.25 µM
- Minimal Inhibitory Concentration [3]: 1 µM
- Minimal Inhibitory Concentration [4]: >64 µM
- hemolytic activity [5]: no hemolytic activity
- inhibition of NO [6]: over 90%
- inhibition of NO [7]: 24.7%
